Measured values published in patent US6593307B1, “Cyclic-ADP-ribose analogs” (Regents of the University of Minnesota, priority 1999, dated 2003).
“Also recorded” adds a separate entry of the source. Where two headings read alike, the source gives them in different places.

Experiments:
[1] = tested on: sea urchin egg homogenates; assay: Ca2+ release assay in sea urchin egg homogenates; assay type: biochemical, Strongylocentrotus purpuratus; details: for EC50: S. purpuratus egg homogenates, read-out: half-maximal concentration for Ca2+ release (EC50)
Protocol: The dilutions and all experiments were conducted at 17° C. Free Ca^2+ concentrations were measured by monitoring the fluorescence (490 nm excitation, 535 nm emission) of the indicator using a Perkin Elmer Model 650 spectrofluometer. […] For some experiments a BMG FluoStar 96 well fluorescence plate reader was used. In this case, samples to be tested were added to wells of a 96 well plate in 1.5 μl aliquots. Calcium release was initiated by adding 150 μl of homogenate to each well with a multichannel pipette. Six to eight wells were measured simultaneously. Samples to be tested were diluted in IM buffer containing 10 μM EGTA.

[2] = Stability to heat (boiling water bath), read out by Ca2+ release
Text: Aliquots were then cooled on ice and the ability of the sample to release Ca^2+ determined. Data is average±sd for a representative experiment performed in triplicate.

[3] = tested on: CB MNC; assay: Fluorimetric determination of [Ca2+]i in CB MNC (FURA 2); assay type: cell-based, human
Protocol: Measurements were performed at room temperature in a 2 ml-cuvette under continuous stirring. […] Chem., 273, 8017-8024. The frequency of recording was 1 point/s. All measurements were performed in Ca^2+-free external solutions.

[4] = tested on: CD38; details: 1 μg/ml CD38 at 37° C.
[5] = tested on: cord blood (CB) mononuclear cells (MNC)
Protocol: (§2) After liquid culture, an appropriate number of MNC or CD34^+-enriched cells was plated in methylcellulose medium supplemented with a mixture of hemopoietic growth factors (Methocult; Stem Cell Technologies, Vancouver, BC, Canada). After 14 days of incubation in a humidified, 5% CO2 atmosphere at 37° C., colonies were scored using an inverted microscope, applying standard criteria for their identification.

[6] = tested on: CD38; assay: Stability to hydrolysis by CD38, read out by Ca2+ release
[7] = tested on: Live L. pictus eggs; assay: Microinjection into live sea urchin eggs (Ca2+ mobilization, cortical reaction)
Text: Live L. pictus eggs were preloaded with the calcium indicator, fluo 3, by microinjection.

[8] = general statement, not tested here; cited from earlier work
[9] = tested on: L. pictus; details: cited from earlier work
[10] = tested on: cord blood (CB) mononuclear cells (MNC); assay: Colony size (cells per colony) from CB MNC; assay type: cell-based, human; details: 100 μM, 24 hours priming
Protocol: as §2

[11] = tested on: bone marrow (BM)-derived clonogenic progenitors; assay: CFC output of bone marrow-derived clonogenic progenitors; assay type: cell-based, human; details: 100 μM, 24 hours, n=3
Text: (§1) Normal bone marrow (BM) cells were obtained from donors providing marrow for allogeneic transplantation. Leukapheresis samples were obtained from normal donors providing peripheral blood (PB) progenitor cells for allogeneic transplant after a short course of granulocyte colony-stimulating factor. All donors gave informed consent. Mononuclear cells (MNC) from CB, BM and PB were separated by density gradient centrifugation on Ficoll-Hypaque (Sigma). After separation, cells were washed twice in Iscove's Modified Dulbecco's Medium (IMDM) containing 5% fetal calf serum (FCS) and resuspended in IMDM containing 10% FCS, penicillin 100 U/ml, streptomycin 100 μg/ml and glutamine 2 mM (complete medium).

[12] = tested on: peripheral blood (PB)-derived clonogenic progenitors; assay: CFC output of peripheral blood-derived clonogenic progenitors; assay type: cell-based, human; details: 100 μM, 24 hours, n=2
Text: as §1

[13] = tested on: CD34+-enriched MNC; assay: CFC growth from CD34+-enriched fractions; assay type: cell-based, human; details: 100 μM, 24 hours, n=6
Protocol: Immunoaffinity purification of CD34^+ cells was used to enrich MNC in colony forming cells (CFC) and early progenitors (Krause, D. […] CD34^+ cell enrichment was performed by positive selection using the miniMACS immunomagnetic separation system (Miltenyi Biotec GmBH, Germany). Briefly, PB- or CB-derived MNC were suspended in phosphate-buffered saline (PBS) containing 0.5% bovine serum albumin and 5 mM EDTA and CD34^+ cells were separated using anti-CD34 antibody (clone: QBEND/10; isotype: mouse IgG1) and colloidal superparamagnetic beads. After labeling, the cell suspension was passed through a column held within a magnetic field causing CD34^+ cells to be retained in the column. Purified CD34^+ cells were then collected following removal of the column from the magnet and washing with buffer.

[14] = tested on: CB MNC; assay: Cytosine arabinoside-susceptibility of CB MNC CFC; assay type: cell-based, human
Text: Thereafter, cells were washed, counted and plated in semisolid medium for assay of CFC at a concentration of 10^4 MNC/plate.

[15] = tested on: specific microsomal binding site for cADPR; details: cited from earlier work
[16] = 100 nM in pipette, about 0.7 nM in the egg
[17] = 1 μM in pipette, about 10 nM in the egg
[18] = 10 μM in pipette, ~130 nM in the egg

## N=c1c2ncn3c2ccn1C1OC(COP(=O)(O)OP(=O)(O)OCC2OC3C(O)C2O)C(O)C1O (stereo not shown) [3-deaza-cADPR, cyclic 3-deaza-adenosine diphosphoribose]
[1]
  lag before Ca2+ release at low concentrations: an appreciable lag is seen
  EC50: 0.001 ± 0.0004 µM
[1]; 1 μM cADPR, 500 nM 3-deaza-cADPR
  desensitization of homogenate to subsequent challenge by the other agonist: renders the system unresponsive
[1]; control traces, FIG. 3
  final concentration able/needed to elicit Ca2+ release: 0.3 nM
[2]
  resistance to heat hydrolysis: resistant
[2]; boiling for up to two hours, 350 nM
  fraction inactivated upon boiling: about 15%
[3]; 10 nM 3-deaza-cADPR, n=7, basal 20.3±1.8
  [Ca2+]i after 24 hours: 96.4 ± 5.0 nM
[3]; 100 μM cADPR or 10 nM 3-deaza-cADPR, zero-calcium external solution
  calcium response of intact cells over 30 min: same rate and extent
[3]; at least 48 hours after removal
  calcium levels following removal of the nucleotide: remained unchanged
[3]; single exponential fit, 10 nM
  [Ca2+]i(t=0), fitted parameter: 21.1 ± 0.6 nM
  Δmax[Ca2+]i, fitted maximal calcium change: 74.0 ± 0.7 nM
  τ, time constant of [Ca2+]i increase: 6.5 h
[4]
  hydrolysis by CD38: did not hydrolyze
[5]; 1 nM, n=5, control 1,150
  median CFC output: 2,050 CFC/ml
[5]; 1 μM, n=5, control 1,150
  median CFC output: 2,200 CFC/ml
[5]; 1, 10, 100 and 1,000 nM, each concentration
  CFC output compared to untreated cells: significant increase
[5]; CFC output
  effect of 1 nM as share of the effect induced by 1 μM: 95%
[6]
  resistance to enzymatic hydrolysis: resistant
[7]; [16]
  Ca2+ transient: small
  injected eggs with partial cortical reaction: 1 out of 6
[7]; [17]
  full cortical reactions out of the 7 eggs injected: 4
  partial cortical reaction out of the 7 eggs injected: 1
[7]; [18]
  Ca2+ transient: large
  eggs with full cortical reaction: 5 out of 5

## N=c1c2ccn3c2ncn1C1OC(COP(=O)(O)OP(=O)(O)OCC2OC3C(O)C2O)C(O)C1O (stereo not shown) [7-deaza-cADPR]
[1]
  agonist character: partial agonist
  EC50: ~0.025 µM
[1]; maximal response, FIG. 4
  Ca2+ release relative to that induced by cADPR or 3-deaza-cADPR: about 70%
[8]
  resistance of the N1-glycosidic linkage to hydrolysis: resistant to hydrolysis
[9]
  relative potency of cADPR and 7-deaza-cADPR: cADPR is more potent than 7-deaza-cADPR

## N=c1c2nc(N)n3c2ncn1[C@@H]1O[C@H](COP(=O)(O)OP(=O)(O)OC[C@H]2O[C@@H]3[C@H](O)[C@@H]2O)[C@@H](O)[C@H]1O [8-NH2-cADPR]
[1]; 2.7 nM 3-deaza-cADPR, 60 and 300 nM 8-amino-cADPR
  effect on 3-deaza-cADPR-induced Ca2+ release: blocks; also recorded: can also inhibit
[3]; 10 μM, 24 hours
  amount of Ca2+ releasable by calcium ionophore A23187 vs untreated: consistent increase
[3]; 10 μM, 24 hours, n=3, from 20±2
  basal [Ca2+]i after incubation: 14 ± 1 nM
[3]; 100 μM, 2 hours pre-incubation
  effect on calcium increase induced by cADPR: completely inhibited
[3]; 2 hours pre-incubation with 100 μM 8-NH2-cADPR, then 100 μM cADPR for 4 hours, n=2
  [Ca2+]i following exposure to cADPR: 20 nM
[5]; 10 μM 8-NH2-cADPR plus 10-fold excess cADPR (100 μM), 24 hours, control 2,800
  mean CFC output: 1,200 CFC/ml
[5]; 10 μM 8-NH2-cADPR plus 100-fold excess cADPR (1 mM), 24 hours, control 2,600
  mean CFC output: 2,500 CFC/ml
[5]; 10 μM, 24 hours pre-treatment
  effect on colony growth: completely inhibited colony growth
[5]; 10 μM, 24 hours, n=3, untreated 3,400
  median CFC output: zero
[5]; after 10 μM 8-NH2-cADPR pre-treatment
  colony growth after further 24 hours with cADPR (100 μM): did not restore colony growth

## Nc1ncnc2c1ncn2[C@@H]1O[C@H](COP(=O)(O)OP(=O)(O)OC[C@H]2OC(O)[C@H](O)[C@@H]2O)[C@@H](O)[C@H]1O (stereo partly shown) [ADPR, ADP-ribose]
[10]
  Median number of cells per colony: 11,560
  Range of number of cells per colony: 6,200-19,000
[11]
  median CFC output, BM-derived: 1,500 CFC/ml
[12]
  median CFC output, PB-derived: 1,460 CFC/ml
[13]
  median CFC growth from CD34+-enriched fractions: 18,000 CFC/10^6 MNC
  range of CFC growth from CD34+-enriched fractions: 360-70,000 CFC/10^6 MNC
[5]; 100 μM, 24 hours, CB MNC
  Median CFC number per ml: 2,141 CFC/ml
  Range of CFC number per ml: 600-13,120 CFC/ml
[5]; any of the concentrations tested (1-1,000 μM)
  effect on CFC growth compared to untreated cells: No effect

## Nc1ccn([C@@H]2O[C@H](CO)[C@@H](O)[C@@H]2O)c(=O)n1 [c-ARA, Cytosine arabinoside]
[14]; 1 μM c-ARA, 24 hours
  effect on the growth-stimulating effect of cADPR: complete inhibition
[14]; 1 μM c-ARA, 24 hours pretreatment
  effect on increased replating efficiency produced by cADPR priming: did not affect
[14]; c-ARA pretreated (1 μM, 24 hours), incubated without cADPR, n=8
  median colony number: 21 per 10^4 plated MNC

## inositol trisphosphate
[15]
  competition for the cADPR binding site relative to cADPR: at least a thousand times less effectively than cADPR
